Assay results as given in patent US20250147039A1, “Compounds for complexation of rare earth elements and/or s-, p-, d- block metals, their coordination compounds, peptide conjugates, method of their preparation and use thereof” (USTAV ORGANICKE CHEMIE A BIOCHEMIE AV CR V.V.I., priority 2021, published 2025).

Key:
[1] = pH dependent formation of 1,5- and 1,4-cz-Lig isomers from Lig (pH dependent click-zip) (Chart 13); assay type: physicochemical
[2] = Alkali metal dependent formation of 1,5-cz-Lig and 1,4-cz-Lig isomers from Lig at pH 10.2 (Chart 14); assay type: physicochemical; settings: Borate/(M^I)2CO3 buffer pH 10.2
[3] = Formation of 1,5-cz-[Ln(Lig)] from Lig and Ln^III ions (metal dependent click-zip), MOPS/NaOH buffer pH 7.0, analytical HPLC (Charts 1, 2); settings: MOPS/NaOH buffer pH 7.0
[4] = Formation of 1,5-cz-[M(Lig)] from Lig and M^III ions (metal dependent click-zip) (Charts 4, 5); assay type: physicochemical; settings: MOPS/NaOH buffer pH 7.0, TD728, TD827 in 50% i-PrOH; for conversion to 1,5-cz-[M(Lig)], Y^III: TD714 sum of two diastereoisomers
[5] = A: 1 hour at 80° C., 0.1M HClO4 (pH ~1)
[6] = A: 1 hour at 80° C., 1.0M HClO4 (pH ~0)
[7] = A: 1 hour at 80° C., pH 2.2, 50 mM aq. buffer
[8] = A: 1 hour at 80° C., pH 3.0, 50 mM aq. buffer
[9] = A: 1 hour at 80° C., pH 3.8, 50 mM aq. buffer
[10] = A: 1 hour at 80° C., pH 4.6, 50 mM aq. buffer
[11] = A: 1 hour at 80° C., pH 5.4, 50 mM aq. buffer
[12] = A: 1 hour at 80° C., pH 6.2, 50 mM aq. buffer
[13] = A: 1 hour at 80° C., pH 7.0, 50 mM aq. buffer
[14] = A: 1 hour at 80° C., pH 8.6, 50 mM aq. buffer
[15] = A: 1 hour at 80° C., pH 9.4, 50 mM aq. buffer
[16] = A: 1 hour at 80° C., pH 10.2, 50 mM aq. buffer
[17] = B: 1 day at 80° C., 0.1M HClO4 (pH ~1)
[18] = B: 1 day at 80° C., 1.0M HClO4 (pH ~0)
[19] = B: 1 day at 80° C., pH 2.2, 50 mM aq. buffer
[20] = B: 1 day at 80° C., pH 3.0, 50 mM aq. buffer
[21] = B: 1 day at 80° C., pH 3.8, 50 mM aq. buffer
[22] = B: 1 day at 80° C., pH 4.6, 50 mM aq. buffer
[23] = B: 1 day at 80° C., pH 5.4, 50 mM aq. buffer
[24] = B: 1 day at 80° C., pH 6.2, 50 mM aq. buffer
[25] = B: 1 day at 80° C., pH 7.0, 50 mM aq. buffer
[26] = B: 1 day at 80° C., pH 8.6, 50 mM aq. buffer
[27] = B: 1 day at 80° C., pH 9.4, 50 mM aq. buffer
[28] = B: 1 day at 80° C., pH 10.2, 50 mM aq. buffer
[29] = B: 1 day at 80° C., visible analyte free precipitate

C#CCNC(=O)CN1CCN(CC(=O)O)CCN(Cc2cc(-c3ccccc3)cc(CN=[N+]=[N-])n2)CCN(CC(=O)O)CC1 [TD425]
88%: conversion to 1,5-cz-Lig isomer [1, 18]
6%: conversion to 1,5-cz-Lig isomer [1, 23] | conversion to 1,5-cz-Lig isomer [1, 24]
3%: conversion to 1,5-cz-Lig isomer [1, 9]
4%: conversion to 1,4-cz-Lig isomer [1, 25] | conversion to 1,4-cz-Lig isomer [1, 27]
90%: conversion to 1,5-cz-Lig isomer [1, 17]
2%: conversion to 1,4-cz-Lig isomer [1, 28] | conversion to 1,5-cz-Lig isomer, Li^I [2, 29]
13%: conversion to 1,5-cz-Lig isomer [1, 5] | conversion to 1,5-cz-Lig isomer [1, 6] | conversion to 1,5-cz-Lig isomer [1, 7]
11%: conversion to 1,5-cz-Lig isomer [1, 27] | conversion to 1,5-cz-Lig isomer, Cs^I ([2]; B: 1 day at 80° C.)
89%: conversion to 1,5-cz-Lig isomer [1, 20]
5%: conversion to 1,4-cz-Lig isomer [1, 26]
1%: conversion to 1,5-cz-Lig isomer [1, 10] | conversion to 1,5-cz-Lig isomer [1, 11] | conversion to 1,5-cz-Lig isomer [1, 15] | conversion to 1,5-cz-Lig isomer [1, 16] | conversion to 1,4-cz-Lig isomer [1, 24] | conversion to 1,4-cz-Lig isomer, Cs^I ([2]; A: 1 hour at 80° C.) | conversion to 1,4-cz-Lig isomer, K^I ([2]; A: 1 hour at 80° C.) | conversion to 1,4-cz-Lig isomer, Rb^I ([2]; A: 1 hour at 80° C.) | conversion to 1,5-cz-Lig isomer, Cs^I ([2]; A: 1 hour at 80° C.) | conversion to 1,5-cz-Lig isomer, Na^I ([2]; A: 1 hour at 80° C.) | conversion to 1,5-cz-Lig isomer, Rb^I ([2]; A: 1 hour at 80° C.) | conversion to 1,4-cz-Lig isomer, Na^I ([2]; B: 1 day at 80° C.)
9%: conversion to 1,5-cz-Lig isomer, Na^I ([2]; B: 1 day at 80° C.)
10%: conversion to 1,5-cz-Lig isomer [1, 8] | conversion to 1,5-cz-Lig isomer [1, 26] | conversion to 1,4-cz-Lig isomer, Cs^I ([2]; B: 1 day at 80° C.) | conversion to 1,4-cz-Lig isomer, K^I ([2]; B: 1 day at 80° C.) | conversion to 1,4-cz-Lig isomer, Rb^I ([2]; B: 1 day at 80° C.) | conversion to 1,5-cz-Lig isomer, K^I ([2]; B: 1 day at 80° C.) | conversion to 1,5-cz-Lig isomer, Rb^I ([2]; B: 1 day at 80° C.)
93%: conversion to 1,5-cz-Lig isomer [1, 19]
15%: conversion to 1,5-cz-Lig isomer [1, 22]
8%: conversion to 1,5-cz-Lig isomer [1, 25]
57%: conversion to 1,5-cz-Lig isomer [1, 21]
12%: conversion to 1,5-cz-Lig isomer [1, 28]
0%: conversion to 1,4-cz-Lig isomer [1, 5] | conversion to 1,4-cz-Lig isomer [1, 6] | conversion to 1,4-cz-Lig isomer [1, 7] | conversion to 1,4-cz-Lig isomer [1, 8] | conversion to 1,4-cz-Lig isomer [1, 9] | conversion to 1,4-cz-Lig isomer [1, 10] | conversion to 1,4-cz-Lig isomer [1, 11] | conversion to 1,4-cz-Lig isomer [1, 12] | conversion to 1,5-cz-Lig isomer [1, 12] | conversion to 1,4-cz-Lig isomer [1, 13] | conversion to 1,5-cz-Lig isomer [1, 13] | conversion to 1,4-cz-Lig isomer [1, 14] | conversion to 1,5-cz-Lig isomer [1, 14] | conversion to 1,4-cz-Lig isomer [1, 15] | conversion to 1,4-cz-Lig isomer [1, 16] | conversion to 1,4-cz-Lig isomer [1, 17] | conversion to 1,4-cz-Lig isomer [1, 18] | conversion to 1,4-cz-Lig isomer [1, 19] | conversion to 1,4-cz-Lig isomer [1, 20] | conversion to 1,4-cz-Lig isomer [1, 21] | conversion to 1,4-cz-Lig isomer [1, 22] | conversion to 1,4-cz-Lig isomer [1, 23] | conversion to 1,4-cz-Lig isomer, Li^I ([2]; A: 1 hour at 80° C.) | conversion to 1,4-cz-Lig isomer, Na^I ([2]; A: 1 hour at 80° C.) | conversion to 1,5-cz-Lig isomer, K^I ([2]; A: 1 hour at 80° C.) | conversion to 1,5-cz-Lig isomer, Li^I ([2]; A: 1 hour at 80° C.) | conversion to 1,4-cz-Lig isomer, Li^I [2, 29] | conversion to 1,5-cz-[Ln(Lig)], Ce^III ([3]; after 1 week at 80° C.) | conversion to 1,5-cz-[Ln(Lig)], Ce^III ([3]; after 1 hour at 80° C.) | conversion to 1,5-cz-[Ln(Lig)], Dy^III ([3]; after 1 week at 80° C.) | conversion to 1,5-cz-[Ln(Lig)], Dy^III ([3]; after 1 hour at 80° C.) | conversion to 1,5-cz-[Ln(Lig)], Er^III ([3]; after 1 week at 80° C.) | conversion to 1,5-cz-[Ln(Lig)], Er^III ([3]; after 1 hour at 80° C.) | conversion to 1,5-cz-[Ln(Lig)], Eu^III ([3]; after 1 week at 80° C.) | conversion to 1,5-cz-[Ln(Lig)], Eu^III ([3]; after 1 hour at 80° C.) | conversion to 1,5-cz-[Ln(Lig)], Gd^III ([3]; after 1 week at 80° C.) | conversion to 1,5-cz-[Ln(Lig)], Gd^III ([3]; after 1 hour at 80° C.) | conversion to 1,5-cz-[Ln(Lig)], Ho^III ([3]; after 1 week at 80° C.) | conversion to 1,5-cz-[Ln(Lig)], Ho^III ([3]; after 1 hour at 80° C.) | conversion to 1,5-cz-[Ln(Lig)], La^III ([3]; after 1 week at 80° C.) | conversion to 1,5-cz-[Ln(Lig)], La^III ([3]; after 1 hour at 80° C.) | conversion to 1,5-cz-[Ln(Lig)], Lu^III ([3]; after 1 week at 80° C.) | conversion to 1,5-cz-[Ln(Lig)], Lu^III ([3]; after 1 hour at 80° C.) | conversion to 1,5-cz-[Ln(Lig)], Nd^III ([3]; after 1 week at 80° C.) | conversion to 1,5-cz-[Ln(Lig)], Nd^III ([3]; after 1 hour at 80° C.) | conversion to 1,5-cz-[Ln(Lig)], Pr^III ([3]; after 1 week at 80° C.) | conversion to 1,5-cz-[Ln(Lig)], Pr^III ([3]; after 1 hour at 80° C.) | conversion to 1,5-cz-[Ln(Lig)], Sm^III ([3]; after 1 week at 80° C.) | conversion to 1,5-cz-[Ln(Lig)], Sm^III ([3]; after 1 hour at 80° C.) | conversion to 1,5-cz-[Ln(Lig)], Tb^III ([3]; after 1 week at 80° C.) | conversion to 1,5-cz-[Ln(Lig)], Tb^III ([3]; after 1 hour at 80° C.) | conversion to 1,5-cz-[Ln(Lig)], Tm^III ([3]; after 1 week at 80° C.) | conversion to 1,5-cz-[Ln(Lig)], Tm^III ([3]; after 1 hour at 80° C.) | conversion to 1,5-cz-[Ln(Lig)], Yb^III ([3]; after 1 week at 80° C.) | conversion to 1,5-cz-[Ln(Lig)], Yb^III ([3]; after 1 hour at 80° C.) | conversion to 1,5-cz-[M(Lig)], Sc^III ([4]; 1 week at 80° C.) | conversion to 1,5-cz-[M(Lig)], Y^III ([4]; 1 week at 80° C.) | conversion to 1,5-cz-[M(Lig)], Sc^III ([4]; 1 hour at 80° C.) | conversion to 1,5-cz-[M(Lig)], Y^III ([4]; 1 hour at 80° C.)
